Where “and” joins values, the source holds several entries; their conditions need not be identical. Equal values may be shown once. Entries after “also recorded” stand apart in the source; their conditions may differ.

Series [1] is described as follows: Solubility of TSC in aqueous cyclodextrin solutions. Format: physicochemical.
Series [2] is described as follows: Absorption of TSC into the blood stream after intramuscular injection with gamma cyclodextrin. Type of series: in vivo. The conditions noted are these: rats.
In series [3] the test system is collagenase-injection model of ICH. Briefly: Collagenase-injection model of intracranial hemorrhage (ICH). Type of series: in vivo, Sprague-Dawley rats. On the procedure: Twelve male, Sprague-Dawley rats (Taconic, Inc.), weighing between 250 to 300 Grams were fed ad libitum and maintained on a 12-hour light/dark cycle. The rats were randomly assigned to 1 of 2 groups as follows: TSC-treated group (n=6) receiving intravenous infusion of TSC (total dose 0.091 mg/kg) and a Control group receiving intravenous infusion of 0.9% normal saline. A collagenase-injection model of ICH was utilized. Animals were anesthetized for 5 minutes with 5% halothane and endotracheally intubated. Anesthesia was maintained under 1 to 1.5% halothane with ventilation supported using Fi02 of 50%. Tail artery cannulation was applied to monitor the blood pressure and arterial blood gas, and a rectal temperature probe monitored body temperature. The right femoral vein was cannulated and connected to a microinjection infusion pump for TSC or saline administration. Body temperature was maintained at 37° C. with a heating pad. Rats were secured into a stereotactic frame with a midline incision over the skull and a cranial burr hole of 1 mm in diameter was drilled with 0.2 mm anterior and 3.5 mm right lateral to Bregma. A 26-gauge needle was inserted stereotactically into the right basal ganglion (5.5 mm ventral) and 5 μL collagenase (0.05 U bacteria collagenase; type IV, Sigma Chemical Co.) was infused at a rate of 1 μL/min using a microinfusion pump. The needle was kept in the striatum for an additional 5 minutes to limit collagenase flow back into the burr hole. After withdrawing the needle, the craniotomy was sealed with bone wax and the wound was sutured closed. TSC was injected intravenously 3 hours after ICH at a final total dosage of 0.091 mg/kg. The TSC formulation used was the sterile lyophilized TSC injectable formulation which was reconstituted with sterile water for injection and diluted with deionized water pH'd to 8.0 with dilute sodium carbonate. […] The outcomes assessed 48 hours post-ICH included hematoma volume, hemoglobin content representing hemorrhagic volume in the injected striatum, and tissue edema. […] Using Meta Morph image analysis software, the hemorrhage area for each section was measured and the total hematoma volume was calculated by summing the clot area in each section and multiplying by the thickness of the sections. A tissue edema index was calculated in each rat by measuring and comparing both of the hemispheres (Edema Index=(R−L)×100/L, R is right hemisphere volume, L is left hemisphere volume). A hemorrhagic volume index was quantified by measuring hemoglobin content in the injected hemisphere. […] This reaction converts hemoglobin to cyanomethemoglobin, the concentration of which can be assessed by the optical density (OD) of the solution at 550 nm wavelength. […]

The test system of series [4] is rabbit small clot embolic stroke model (RSCEM). Description: Rabbit small clot embolic stroke model (RSCEM), quantal dose-response analysis of behavior. Type of series: in vivo, Male New Zealand white rabbits. The conditions noted are these: TSC 0.25 mg/kg IV bolus 1 hour post-embolization; behavior measured 24 hours following embolization; Mean±SEM. From the text: Methods: This model uses rabbits and is known as RSCEM. Male New Zealand white rabbits were anesthetized using isoflurane (5% induction, 2% maintenance by facemask), the bifurcation of the right carotid artery was exposed and the external carotid was ligated just distal to the bifurcation, where a catheter was inserted into the common carotid and secured with ligatures. The incision was closed around the catheter with the distal ends left accessible outside the neck; the catheter was filled with heparinized saline and plugged with an injection cap. Rabbits were allowed to recover from anesthesia for a minimum of 2 h until they behaved normally. […] Microclots were re-suspended in PBS, then washed and allowed to settle, followed by aspiration of the supernatant and spiking of the microclots with tracer quantities of 15-μm radiolabeled microspheres. The specific activity of the particles was determined by removing an aliquot, after which appropriate volumes of PBS solution were added so that a predetermined weight of clot particles were rapidly injected through the catheter and both the syringe and catheter were flushed with 5 ml of normal saline. […]
These parameters are measures of the amount of microclots (in mg) that produce neurologic dysfunction in 50% of a group of animals (P50). The P50 values are then calculated as described previously and are presented as Mean±SEM. […]

Series [5] has as its system ischemic tissue in brain sections. Briefly: Ischemic stroke model: middle cerebral artery and two carotid arteries ligated for 2 hours. The conditions noted are these: TSC 0.1 mg/kg given after removal of 2 hour ligature; rats sacrificed after 24 hours. Type of series: in vivo. On the procedure: In order to find new drugs for stoke victims, different animal models of ischemic stroke are used. In one model, blood vessels (middle cerebral artery, two carotid arteries) are ligated for a period of 2 hours. The ligature is then removed, a drug is given, and the animals (rats in this case) are sacrificed after 24 hours. The brain sections are stained and examined in order to determine the amount of damaged (ischemic) tissue.

Series [6] is described as follows: Stability of TSC in formulation as a function of pH. Format: physicochemical. The conditions noted are these: formulation with glycine buffer; pH around 8.2+/-0.5 required.
The mark [7] stands for this setting: TSC 0.1 mg/kg, rat collagenase model (summary in description).

As for `CC(/C=C/C=C(\C)C(=O)[O-])=C\C=C\C=C(C)\C=C\C=C(/C)C(=O)[O-].[Na+].[Na+]` [TSC, trans sodium crocetinate], in series [1] (TSC and gamma-cyclodextrin), the “TSC concentration reached in aqueous solution” value is given as ≤ 44 milligrams of TSC per ml of solution. Also, the “TSC concentration reached in solution” value in series [1] (TSC formulated with a cyclodextrin and mannitol) was “over 20 mg TSC/ml of solution”. Besides, the “absorption into the blood stream” value in series [2] was “quick”. Besides, in series [3] (setting [7]), the “hemorrhage volume (amount of blood that hemorrhages into the brain)” value is “decrease” and the “reduction in amount of edema caused by the hemorrhagic stroke” value was “about 50%”. For the same compound, in series [3] (TSC total dose 0.091 mg/kg IV starting 3 hours after ICH, assessed 48 hours post-ICH, n=6, 0.091 mg/kg), the “hematoma volume/size after ICH vs saline control” value is listed as “slightly, but not statistically significantly, reduced; also recorded: did not differ”. Moreover, the “reduction in hemorrhagic volume (tissue hemoglobin content) vs saline control” value in series [3] (TSC total dose 0.091 mg/kg IV starting 3 hours after ICH, assessed 48 hours post-ICH, n=6, p<0.05) is listed as “approximately 20%”. Moreover, the “P50 (amount of microclots that produces neurologic dysfunction in 50% of a group of animals)” value in series [4] is 2.84±1.01 mg and 2.84±0.51 mg. Moreover, the “reduction in the amount of ischemic tissue” value in series [5] is on record as “about 60%”. The “stability versus pH” value in series [6] is on record as “more stable at higher pHs”.

For the origin of these results see patent US11147859B2, “Diffusion enhancing compounds and their use alone or with thrombolytics” (Diffusion Pharmaceuticals LLC, priority 2009, dated 2021).
